Experiments:
primary CD4+ T cells [1] = tested on: primary CD4+ T cells
Protocol: FIG. 5: Expression of T cell activation markers in PEP005-treated primary CD4+ T cells. (A) CD4+ T cells were isolated from uninfected control subjects and treated with 12 nM PEP005 for 24 hrs. Total RNA was extracted, and gene expression of CD38, CD69, CD25, or HLA-DR was analyzed by RT-qPCR. (B-F) PBMCs isolated from peripheral blood of healthy HIV-negative donors were treated for 24 or 72 hours with 12 nM of PEP005, and the expression of CD38 (B), CD69 (C, D), and HLA-DR (E, F) was evaluated using flow cytometry after co-staining with the CD3 T cell marker.
Isolation of the peripheral blood mononuclear cells (PBMC) and purification of CD4+ T cells using the EasySep kit ([sequence] Technologies Inc. Vancouver, BC, Canada) were performed as previously described [24]. The purified CD4+ T cells were plated at a density of 1×10^6 cells/ml and treated with 200 ng/ml PMA plus 2 μM Ionomycin, 6-12 nM PEP005, 2 μM of JQ1, or 12 nM PEP005 plus 2 μM JQ1 for 6 hrs or 48 hrs and the cells were collected for RNA purification. To measure changes in the cell activation status of CD4+ and CD8+ T cell subsets, PBMCs were isolated from uninfected controls and 2×10^6 cells were incubated with DMSO, 200 ng/ml PMA plus 2 μM Ionomycin, 6-12 nM PEP005 for 24 hrs or 72 hrs, and immunostained with anti-CD3, anti-CD38, anti-CD69, or anti-HLA-DR antibodies (Biolegend) for 20 min at 4° C. Cells were fixed in 1% PFA and analyzed by flow cytometry (FlowJo software from TreeStar).

CD4, CCR5 and CXCR4 = assay: Expression of HIV receptors/co-receptors in primary CD4+ T cells (RT-qPCR); format: cell-based, human; settings: primary CD4+ T cells of healthy HIV-negative donors, 12 nM PEP005, 72 hours
Protocol: (§1) FIG. 12: PEP005 down-modulates the expression of CD4, CCR5 and CXCR4 and inhibits HIV infection of primary CD4+ T cells ex vivo. (A) PEP005 inhibits expression of HIV receptors/co-receptors. […] The expression of CD4, CCR5 and CXCR4 genes was evaluated using RT-qPCR after normalizing for GAPDH. (B) and (C) PEP005 inhibits HIV infection of primary CD4+ T cells ex vivo. Primary CD4+ T cells were pre-treated with 12 or 24 nM PEP005 overnight and infected with the virus. The CD4+ T cells were incubated for 5 days without PEP005. The cells were collected for RT-qPCR targeting the HIV LTR region (B), or supernatants were collected for p24 ELISA (C). *, p<0.05; **, p<0.01.
Recent studies have shown that Prostratin and analogs down-modulate HIV receptor/co-receptor expression, which could have protective effects against the viral infection. Conversely, SAHA, known to induce latent HIV expression in HIV infected individuals receiving ART, was reported to increase susceptibility of naive CD4+ T cells to HIV acquisition. […] Primary CD4+ T cells from peripheral blood samples of healthy HIV-negative donors were treated with 12 nM PEP005 and evaluated for the expression levels of CD4, CCR5, and CCXR4 using RT-qPCR. […] The virological outcome in the CD4+ T cell cultures in vitro was monitored for 5 days.

[2] = tested on: PKCδ/θ-IκBα/ε-NF-κB signaling; assay: Western blot of PKC isoforms, IκB isoforms and NF-κB/p65; format: cell-based; settings: J-Lat A1 cells
Protocol: Western blot analysis was performed to detect the expression of PKC isoforms, IκB isoforms, as well as expression of NF-κB/p65.
Whole cell protein extracts were prepared with RIPA buffer containing proteinase inhibitors and phosphatase inhibitors (Sigma). Expression of the isoforms of PKC protein or NF-κB/p65 was evaluated using the PKC Isoform Sampler Antibody Kit (Cell Signaling, 9960S) or anti-NF-κB/p65 (Abcam). The level of phosphorylation of PKC was determined using anti-Phospho-Ser664-PKCδ, anti-Phospho-Ser643/676 PKCδ or anti-Phospho-T538-PKCθ (Millipore), and the level of phosphorylation of IκB was determined using p-IκBα(Ser32), p-IκBβ (Thr19/Ser23) or p-IκBε(Ser18/22) antibodies (Millipore).

HIV-1 IIIB = assay: HIV-1 infection of primary CD4+ T cells pre-treated with PEP005 (RT-qPCR, p24 ELISA); format: cell-based; settings: pre-treatment with 12 or 24 nM PEP005; 3 and 5 days after HIV infection
Protocol: as §1
Primary CD4+ T cells were isolated from peripheral blood samples of healthy HIV-negative donors and were pre-treated with PEP005 overnight. The CD4+ T cells were infected with HIV-1 (HIV-1 IIIB expanded in Jurkat T cells, 100 ng p24-gag) through spinoculation as described previously. Following an exposure of 24 hrs to HIV, the cells were washed. Cell supernatants were collected and HIV p24 levels were measured by ELISA. The cells were also collected for RNA extraction and measurement of viral transcripts by RT-qPCR.

[3] = systemic (intravenous), mini pig and rat model; cited from earlier work
primary CD4+ T cells [4] = assay: Pro-inflammatory cytokine expression in primary CD4+ T cells (RT-qPCR); format: cell-based, human; settings: CD4+ T cells of healthy HIV-negative donors, 6 or 12 nM PEP005, 24 or 72 hours
Protocol: CD4+ T cells were isolated from healthy donors and treated with 6 or 12 nM of PEP005 for 24 or 72 hours, and the relative expression of TNF-α (A), IFN-γ (B), IL-2 (C), and IL-6 (D) was quantified using RT-qPCR and normalized to GAPDH internal control.

[5] = tested on: latent HIV in primary CD4+ T cells; assay: Ex vivo HIV transcription in primary CD4+ T cells from HIV infected individuals on suppressive ART (RT-qPCR); format: cell-based
Protocol: Primary CD4+ T cells were isolated from peripheral blood of HIV infected individuals on suppressive ART and treated with 6 or 12 nM PEP005, 200 ng/ml PMA plus 2 μM lonomycin, or DMSO for 6 hours. Induction of HIV transcription was measured using RT-qPCR for the 5′ LTR region or Poly A region of the virus. **, p<0.01.
Primary CD4+ T cells were isolated from the peripheral blood of HIV positive individuals on suppressive ART and treated with 12 nM PEP005 alone or in combination with JQ1 for 6 hours, and HIV transcription was quantified using RT-qPCR for the 5′ LTR region or Poly A region of the virus.
Primary CD4+ T cells were isolated from the peripheral blood of HIV positive individuals on suppressive ART and treated with 12 nM PEP005 alone or in combination with JQ1 for 48 hours, and HIV transcription was quantified using RT-qPCR for the 5′ LTR region or Poly A region of the virus.
Primary CD4+ T cells were isolated from the peripheral blood of HIV positive individuals on suppressive ART and treated with 12 nM PEP005 alone or in combination with JQ1 for 6 or 48 hours, and HIV transcription was quantified using RT-qPCR for the 5′ LTR region or Poly A region of the virus.
Peripheral blood samples were collected from 13 HIV-infected individuals receiving suppressive ART for >3 years except for one patient. All subjects had suppression of plasma viremia for more than 6 months (Average 5.84 years). At the time of the study enrollment, CD4+ T cell counts in peripheral blood samples ranged from 264 to 1100 cells/mm^3 (Average 639 cell/mm^3) and plasma viral loads were <20 copies per ml as measured by qPCR (Table 1). Isolation of the peripheral blood mononuclear cells (PBMC) and purification of CD4+ T cells using the EasySep kit ([sequence] Technologies Inc. Vancouver, BC, Canada) were performed as previously described [24]. The purified CD4+ T cells were plated at a density of 1×10^6 cells/ml and treated with 200 ng/ml PMA plus 2 μM Ionomycin, 6-12 nM PEP005, 2 μM of JQ1, or 12 nM PEP005 plus 2 μM JQ1 for 6 hrs or 48 hrs and the cells were collected for RNA purification.

[6] = PBMCs of healthy HIV-negative donors, 12 nM PEP005, 24 or 72 hours
[7] = purified primary CD4+ T cells, 12 nM PEP005, 24 hrs

## C/C=C(/C)C(=O)O[C@H]1C(C)=C[C@]23C(=O)[C@@H](C=C(CO)[C@@H](O)[C@]12O)[C@H]1[C@@H](C[C@H]3C)C1(C)C [PEP005, (1aR,2S,5R,5aS,6S,8aS,9R,10aR)-5,5a-Dihydroxy-4-(hydroxymethyl)-1,1,7,9-tetramethyl-11-oxo-1a,2,5,5a,6,9,10,10a-octahydro-1H-2,8a-methanocyclopenta[a]cyclpropa[e][10]annulen-6-yl (2Z)-2-methylbut-2-enoate]
Primary CD4+ T cells [1]; [6]
  expression of CD38 (24 hr) and HLA-DR by flow cytometry: no significant change
  expression of CD69 by flow cytometry: increase in expression of CD69
Primary CD4+ T cells [1]; [7]
  expression of CD38, CD25, or HLA-DR by RT-qPCR: did not cause any significant change
  expression of CD69 by RT-qPCR: increased expression of CD69
CD4, CCR5 and CXCR4
  expression of CD4, CCR5, and CXCR4: significant reduction
[2]; 12 nM PEP005
  expression of NF-κB/p65: did not change
  phosphorylation of IκB isoforms: induced phosphorylation of IκBα and IκBε, but not of IκBβ
[2]; 12 nM PEP005, 1 hr
  expression of PKC proteins: modest up-regulation of PKCδ
[2]; 12 nM PEP005, as early as 30 minutes post treatment
  phosphorylation of Ser643/Ser676 in PKCδ/θ: greater than a two-fold increase
HIV-1 IIIB
  HIV gene expression after HIV infection (RT-qPCR, HIV LTR region): dampened HIV gene expression
  viral replication after HIV infection (p24 ELISA): decreased the level of viral replication
[3]
  maximum nonlethal dose: > 0.073 mg/kg
Primary CD4+ T cells [4]
  expression of TNF-α, IFN-γ, IL-2, and IL-6: no significant increase
Primary CD4+ T cells [4]; not statistically significant
  expression of TNF-α: tendency towards an up-regulation
[5]; 6 nM PEP005, 6 hrs
  individuals with increase in HIV transcription, 5′ LTR region: 2 out of 7
[5]; 12 nM PEP005
  donors with 2 or >2 fold increase in full-length HIV transcripts, poly A region: 5 of the 6
[5]; 12 nM PEP005, 6 hr, vs control treatment
  HIV RNA copy number in 1 μg of total RNA from CD4+ T cells: significantly induced latent HIV reactivation
[5]; 12 nM PEP005, 6 hrs
  individuals with HIV transcription, 5′ LTR region: 5 out of 7
[5]; After 6 hours of PEP005 treatment
  donors with 2 fold or >2 fold increase in full-length HIV transcripts, poly A region: 5 of the 7
